Laboratory results taken from ChEMBL document CHEMBL1811818, “Arthrobotrisins A-C, oligosporons from the nematode-trapping fungus Arthrobotrys oligospora” (2011).
Active and inactive are the calls of the source. The rule behind the calls is not given here.

Tests used:
Bacillus sp. [1] = assay: Antibacterial activity against Bacillus sp. 3.38 at 150 ug by agar diffusion assay; format: functional; details: Bacillus sp. (in: firmicutes), read-out: IZ
Panagrellus redivivus = assay: Nematicidal activity against Panagrellus redivivus assessed as effect on larval development at 200 ug/mL after 48 hrs; format: functional, organism-based
Bacillus sp. [2] = assay: Antibacterial activity against Bacillus sp. 3.38 at 300 ug by agar diffusion assay; format: functional; details: Bacillus sp. (in: firmicutes), read-out: IZ
Bacillus sp. [3] = assay: Antibacterial activity against Bacillus sp. 3.38 at 50 ug by agar diffusion assay; format: functional; details: Bacillus sp. (in: firmicutes), read-out: DIZ
Bacillus subtilis [4] = assay: Antibacterial activity against Bacillus subtilis 3.34 at 25 ug by agar diffusion assay; format: functional; details: read-out: IZ
Bacillus subtilis [5] = assay: Antibacterial activity against Bacillus subtilis 3.34 at 50 ug by agar diffusion assay; format: functional; details: read-out: IZ
Staphylococcus aureus = assay: Antibacterial activity against Staphylococcus aureus 3.17 at 50 ug by agar diffusion assay; format: functional; details: read-out: DIZ
Bacillus subtilis [6] = assay: Antibacterial activity against Bacillus subtilis 3.34 assessed as by agar diffusion assay; format: functional
Bacillus subtilis [7] = assay: Antibacterial activity against Bacillus subtilis 3.34 at 10 ug by agar diffusion assay; format: functional; details: read-out: DIZ

**Q.** With CC(C)=CCC/C(C)=C/C[C@H](O)/C(C)=C/[C@H](O)[C@]12O[C@H]1[C@H](O)C(CO)=C[C@@H]2O [ARTHROBOTRISIN B] as the molecule, how does the zone of inhibition at 150 µg/disc (Bacillus sp. [1]) read?
**A.** The zone of inhibition at 150 µg/disc was 4.7 mm.

**Q.** What about the Activity (Panagrellus redivivus) of the same molecule?
**A.** Its Activity is “inactive”.

**Q.** And the zone of inhibition at 300 µg/disc (Bacillus sp. [2])?
**A.** The zone of inhibition at 300 µg/disc was 8 mm.

**Q.** What does the source list for CC(C)=CCC/C(C)=C/C[C@H](O)/C(C)=C/[C@H](O)[C@]12O[C@H]1[C@@H](O)C(CO)=C[C@@H]2O [ARTHROBOTRISIN C]?
**A.** zone of inhibition at 50 µg/disc (Bacillus sp. [3]): 9.1 mm; zone of inhibition at 25 µg/disc (Bacillus subtilis [4]): 14.2 mm; zone of inhibition at 50 µg/disc (Bacillus subtilis [5]): 19.4 mm; zone of inhibition at 50 µg/disc (Staphylococcus aureus): 7 mm; MIC (Bacillus subtilis [6]): 5 µg; Activity (Panagrellus redivivus): inactive

**Q.** With O=C(N[C@H](CO)[C@H](O)c1ccc([N+](=O)[O-])cc1)C(Cl)Cl [CHLORAMPHENICOL] as the molecule, how does the zone of inhibition at 10 µg/disc (Bacillus subtilis [7]) read?
**A.** The zone of inhibition at 10 µg/disc was 36.3 mm.
